In ChEMBL document CHEMBL1201862, “PubChem BioAssay data set” (2004):
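Grown in 96-well plates, cells were treated for 48 hours with each compound at five concentrations. Insufficient inhibition: endpoint recorded as highest concentration tested. GI50 is the concentration that inhibits growth by half.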 Activity calls are given as the source filed them. Rule as the data show it: active = GI50 up to about 1.1 µM and inactive = higher.

Tests used:
Experiment in all cases: growth of human tumour cells (NCI), 48 h
[1] = system: HCT-15
[2] = system: UO-31
[3] = system: RPMI-8226
[4] = system: K562
[5] = system: SK-MEL-28
[6] = system: HT-29
[7] = system: A498
[8] = system: PC-3
[9] = system: DU-145
[10] = system: M14
[11] = system: MDA-MB-231
[12] = system: NCI-H522
[13] = system: NCI/ADR-RES
[14] = system: CCRF-CEM
[15] = system: HOP-62
[16] = system: U-251
[17] = system: SW-620
[18] = system: MOLT-4
[19] = system: SK-MEL-5
[20] = system: CAKI-1
[21] = system: IGROV-1
[22] = system: UACC-257
[23] = system: NCI-H23
[24] = system: MDA-MB-435
[25] = system: OVCAR-8
[26] = system: SF-539
[27] = system: OVCAR-5
[28] = system: MCF7
[29] = system: SNB-19
[30] = system: EKVX
[31] = system: ACHN
[32] = system: Hs-578T
[33] = system: HOP-92
[34] = system: SK-MEL-2
[35] = system: UACC-62
[36] = system: HL-60
[37] = system: SNB-75
[38] = system: COLO 205
[39] = system: SN12C
[40] = system: HCC 2998
[41] = system: BT-549
[42] = system: TK-10
[43] = system: SF-295
[44] = system: MDA-N
[45] = system: SK-OV-3
[46] = system: RXF 393
[47] = system: KM12
[48] = system: LOX IMVI
[49] = system: SR
[50] = system: OVCAR-4
[51] = system: A549
[52] = system: HCT-116
[53] = system: 786-0
[54] = system: SF-268
[55] = system: NCI-H226
[56] = system: NCI-H460
[57] = system: OVCAR-3
[58] = system: T47D

COC(=O)c1ccccc1/N=C(/NC1CCCCCC1)NS(=O)(=O)c1ccc(C)cc1 was tested, and the GI50 [1] was > 100 µM, the GI50 [2] was > 100 µM (inactive) and the GI50 [3] was > 100 µM (inactive). The GI50 [4] was > 100 µM (inactive), the GI50 [5] was > 100 µM (inactive) and the GI50 [6] was > 100 µM (inactive). The GI50 [7] was > 100 µM (inactive), the GI50 [8] was > 100 µM (inactive) and the GI50 [9] was 58.6 µM (inactive). For the same compound, the GI50 [10] was > 100 µM (inactive), the GI50 [11] was 76.9 µM (inactive) and the GI50 [12] was 77.4 µM (inactive). For the same compound, the GI50 [13] was > 100 µM (inactive), the GI50 [14] was > 100 µM (inactive) and the GI50 [15] was 99.3 µM (inactive). The GI50 [16] was > 100 µM (inactive), the GI50 [17] was > 100 µM (inactive) and the GI50 [18] was > 100 µM (inactive). For the same compound, the GI50 [19] was > 100 µM (inactive), the GI50 [20] was 74.5 µM (inactive) and the GI50 [21] was > 100 µM (inactive). For the same compound, the GI50 [22] was > 100 µM (inactive), the GI50 [23] was > 100 µM (inactive) and the GI50 [24] was > 100 µM (inactive). The GI50 [25] was > 100 µM (inactive), the GI50 [26] was > 100 µM (inactive) and the GI50 [27] was > 100 µM (inactive). For the same compound, the GI50 [28] was 99.1 µM (inactive), the GI50 [29] was > 100 µM (inactive) and the GI50 [30] was > 100 µM (inactive). The GI50 [31] was > 100 µM (inactive), the GI50 [32] was > 100 µM (inactive) and the GI50 [33] was 89.7 µM (inactive). For the same compound, the GI50 [34] was > 100 µM (inactive), the GI50 [35] was > 100 µM (inactive) and the GI50 [36] was 96.2 µM (inactive). The GI50 [37] was > 100 µM (inactive), the GI50 [38] was > 100 µM (inactive) and the GI50 [39] was > 100 µM (inactive). The GI50 [40] was > 100 µM (inactive), the GI50 [41] was > 100 µM (inactive) and the GI50 [42] was > 100 µM (inactive). The GI50 [43] was 26.4 µM (inactive), the GI50 [44] was > 100 µM (inactive) and the GI50 [45] was > 100 µM (inactive). For the same compound, the GI50 [46] was > 100 µM (inactive), the GI50 [47] was > 100 µM (inactive) and the GI50 [48] was > 100 µM (inactive). The GI50 [49] was > 100 µM (inactive), the GI50 [50] was > 100 µM (inactive) and the GI50 [51] was > 100 µM (inactive). For the same compound, the GI50 [52] was > 100 µM (inactive), the GI50 [53] was > 100 µM (inactive) and the GI50 [54] was > 100 µM (inactive). The GI50 [55] was > 100 µM (inactive), the GI50 [56] was > 100 µM (inactive) and the GI50 [57] was > 100 µM (inactive). The GI50 [58] was > 100 µM (inactive).
